Entries after “also recorded” stand apart in the source; their conditions may differ.
Assays:
C47 BI/6 mice = assay: Lightening of regrowing hair pigmentation in depilated mice, topical application; format: in vivo; conditions: 4% HQ; for Average gray value within the hair shafts, awl hairs / Average gray value within the hair shafts, zig-zag hairs: topical daily for 19 days after depilation, scale 0 (white) to 255 (black); for Average gray value within the hair shafts, awl hairs: 100 μm (0.0057%) Bis or ruboxistaurin in DMSO:propylene glycol, control value 181; for Maximum degree of hair lightening, zig-zag hairs below versus above the median gray value: zig-zag (small) hairs, FIG. 3, 0.0057% ruboxistaurin; for Color of zig-zag hairs compared to vehicle control (micrograph): FIG. 1, 100 μm Bis or ruboxistaurin; for Average gray value within the hair shafts, zig-zag hairs: 100 μm (0.0057%) Bis or ruboxistaurin, control 159
Source text: Briefly, […] mice aged 8-9 weeks (3 per group) were depilated to remove back hairs. These mice have black hair but no melanin pigmentation in the skin. Melanocytes in the hair follicle are responsible for the coat color. […] All compounds and vehicle were applied daily to the depilated areas for 19 days after depilation, i.e. throughout the period during which the new hair shafts are produced following depilation. Representative hairs of each type: guard, awl (large follicles deep in the dermis or subcutaneous follicle), auchene, and zig-zag (smaller follicles set in the more superficial dermis and the most numerous type of coat hairs), were randomly plucked (50/mouse) and photographed under a dissecting microscope. For separate analysis, 20 dark and light hairs from each mouse were subjected to computer assisted analysis of “gray value” for the pixels comprising the hair shaft.
Average gray value within the hair shafts were determined using ImageJ (NIH) software. The gray value is the sum of the gray values of all the pixels in the hair shaft divided by the number of pixels; and values range from 0 (white, no pigment) to 255 (black).
To determine the maximum degree of hair lightening (attributable to maximal drug exposure), an additional comparison was made between zig-zag hairs in each group that fell below versus above the median gray value.

PKC isoform γ = PKC isoform γ (Homo sapiens, UniProt P05129); conditions: Jirousek et al. J Med Chem 1996; cited from earlier work
Solubility statement = format: physicochemical
PKC isoform η = PKC isoform η (Homo sapiens, UniProt P24723); conditions: Jirousek et al. J Med Chem 1996; cited from earlier work
PKC isoform η, sequence (P24723 whole entry, canonical isoform): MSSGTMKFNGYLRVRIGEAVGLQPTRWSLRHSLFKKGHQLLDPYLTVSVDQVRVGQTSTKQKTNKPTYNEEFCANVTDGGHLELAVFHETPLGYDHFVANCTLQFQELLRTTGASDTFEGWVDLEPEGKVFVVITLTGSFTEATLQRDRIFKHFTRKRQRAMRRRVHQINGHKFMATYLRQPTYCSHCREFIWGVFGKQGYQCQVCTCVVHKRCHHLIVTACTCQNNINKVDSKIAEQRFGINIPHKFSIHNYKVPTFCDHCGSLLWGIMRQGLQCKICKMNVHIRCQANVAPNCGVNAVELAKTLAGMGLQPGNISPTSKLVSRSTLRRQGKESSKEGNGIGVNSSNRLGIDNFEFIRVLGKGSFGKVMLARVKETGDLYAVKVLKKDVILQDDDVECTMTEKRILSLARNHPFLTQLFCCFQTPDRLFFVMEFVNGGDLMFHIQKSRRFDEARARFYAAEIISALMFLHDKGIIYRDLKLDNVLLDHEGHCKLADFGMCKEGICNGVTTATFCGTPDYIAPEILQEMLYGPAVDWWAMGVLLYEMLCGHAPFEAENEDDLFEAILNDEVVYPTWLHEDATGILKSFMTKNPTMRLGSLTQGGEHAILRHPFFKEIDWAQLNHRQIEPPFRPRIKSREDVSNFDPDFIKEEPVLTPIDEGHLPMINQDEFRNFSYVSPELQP

Compound	Average gray value within the hair shafts, awl hairs (C47 BI/6 mice)	Maximum degree of hair lightening, zig-zag hairs below versus above the median gray value (C47 BI/6 mice)	Color of zig-zag hairs compared to vehicle control (micrograph) (C47 BI/6 mice)	Average gray value within the hair shafts, zig-zag hairs (C47 BI/6 mice)	IC50 (PKC isoform γ)	Solubility (Solubility statement)	IC50 (PKC isoform η)
Oc1ccc(O)cc1 [HQ, hydroquinone]	168	minimally lighter than control hairs	minimal color difference	156			
CN(C)CC1CCn2cc(c3ccccc32)C2=C(C(=O)NC2=O)c2cn(c3ccccc23)CCO1 (centres unmarked) [ruboxistaurin, 9-[(dimethylamino)methyl]-6,7,10,11-tetrahydro-9H,18H-5,21:12,17-di(metheno)dibenzo[e,k]pyrrolo[3,4-h][1,2,13]oxadiazacyclohexadecine-18,20-dione]	155	lighter than both control and 4% HQ hairs	significantly lighter; also recorded: lightest	134	300 nM	poorly soluble	52 nM

Reference: patent publication US20250127700A1, “METHODS OF TREATING HYPERPIGMENTATION DISORDERS” (DermBiont, Inc., priority 2016, published 2025)
